Assay results published in PMC10419279, “Biochemical and Functional Characterization of the Three Zebrafish Transglutaminases 2” (International Journal of Molecular Sciences, 2023).
Square brackets hold non-standard residues; d marks the D form. Peptide text beside a SMILES is read from it. * marks the point of attachment. DON = [N-]=[N+]=CC(=O)CC[C@H](N)C(=O)O; Cbz = O=C(OCc1ccccc1)*

Key:
Assay in all cases: ELISA, pentylamine-biotin incorporation into coated N,N-dimethylcasein
Format in all cases: biochemical
hTG2 [1] = target: T1, hTG2 (Homo sapiens, UniProt P21980); details: 50 ng enzyme, 0.2 mM pentylamine-biotin, 5 mM CaCl2, 10 mM DTT, pH 8.0, 37 °C, 1 h; GTP 100 µM (methods) or 100 mM (figure legend)
T1 construct: gene TGM2; recombinant hTG2 used as positive control; source and tag of purified protein not detailed; 77 kDa
T1 sequence (P21980 2-687): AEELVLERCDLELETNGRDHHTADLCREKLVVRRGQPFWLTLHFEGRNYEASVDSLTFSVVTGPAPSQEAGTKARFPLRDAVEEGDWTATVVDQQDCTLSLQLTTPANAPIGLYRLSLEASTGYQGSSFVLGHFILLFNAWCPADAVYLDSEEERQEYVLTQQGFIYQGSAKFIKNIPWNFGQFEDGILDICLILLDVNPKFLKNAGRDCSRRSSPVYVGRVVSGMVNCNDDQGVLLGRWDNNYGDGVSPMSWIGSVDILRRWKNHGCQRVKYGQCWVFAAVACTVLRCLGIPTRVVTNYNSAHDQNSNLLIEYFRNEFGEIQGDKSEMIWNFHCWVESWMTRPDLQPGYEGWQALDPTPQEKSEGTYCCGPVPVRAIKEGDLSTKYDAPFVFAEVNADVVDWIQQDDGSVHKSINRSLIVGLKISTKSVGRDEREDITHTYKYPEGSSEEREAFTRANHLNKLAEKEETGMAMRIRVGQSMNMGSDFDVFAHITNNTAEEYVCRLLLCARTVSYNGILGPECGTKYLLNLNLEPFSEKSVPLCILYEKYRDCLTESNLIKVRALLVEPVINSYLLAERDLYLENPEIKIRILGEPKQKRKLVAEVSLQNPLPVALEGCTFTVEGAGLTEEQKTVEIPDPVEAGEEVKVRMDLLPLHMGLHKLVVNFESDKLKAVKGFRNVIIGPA

zTG2a [2] = target: T2, zTG2a (Danio rerio, UniProt Q66L63); details: 50 ng enzyme, 0.2 mM pentylamine-biotin, 5 mM CaCl2, 10 mM DTT, pH 8.0, 37 °C, 1 h; GTP 100 µM (methods) or 100 mM (figure legend)
T2 construct: gene tgm2a; full-length CDS in pET30a(+), His6-tagged (text: C-terminal His-tag; reverse primer keeps stop codon), E. coli BL21(DE3), Ni-NTA; primer-encoded N-terminus MERVVE, C-terminus LVIYE
T2 sequence (Q66L63 1-679): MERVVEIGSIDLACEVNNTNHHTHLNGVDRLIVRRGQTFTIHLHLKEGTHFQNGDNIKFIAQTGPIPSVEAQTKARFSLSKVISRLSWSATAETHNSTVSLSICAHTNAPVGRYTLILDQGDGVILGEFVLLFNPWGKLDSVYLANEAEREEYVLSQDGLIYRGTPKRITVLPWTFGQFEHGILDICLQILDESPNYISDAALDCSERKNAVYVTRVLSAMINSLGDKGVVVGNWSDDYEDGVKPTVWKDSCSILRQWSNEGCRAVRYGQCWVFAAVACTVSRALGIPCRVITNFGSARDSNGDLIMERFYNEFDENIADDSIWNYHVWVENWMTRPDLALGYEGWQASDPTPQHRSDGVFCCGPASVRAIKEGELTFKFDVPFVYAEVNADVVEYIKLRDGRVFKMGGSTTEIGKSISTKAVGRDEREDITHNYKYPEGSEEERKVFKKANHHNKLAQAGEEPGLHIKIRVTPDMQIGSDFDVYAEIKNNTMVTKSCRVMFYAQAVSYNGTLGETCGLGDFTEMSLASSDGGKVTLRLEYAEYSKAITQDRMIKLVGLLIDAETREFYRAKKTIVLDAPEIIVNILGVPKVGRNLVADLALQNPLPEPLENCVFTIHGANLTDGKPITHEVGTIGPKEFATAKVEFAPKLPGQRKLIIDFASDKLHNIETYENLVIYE

zTG2b [3] = target: T3, zTG2b (Danio rerio, UniProt A0ACM8QA61); details: amine co-substrate with N,N-dimethylcasein; 5 mM CaCl2, 10 mM DTT, pH 8.0, 37 °C
T3 construct: gene tgm2b; full-length CDS in pET30a(+), His6-tagged (text: C-terminal His-tag; reverse primer keeps stop codon), E. coli BL21(DE3), Ni-NTA; primer-encoded N-terminus MALDIG, C-terminus VIIGK
T3 sequence (A0ACM8QA61 1-679): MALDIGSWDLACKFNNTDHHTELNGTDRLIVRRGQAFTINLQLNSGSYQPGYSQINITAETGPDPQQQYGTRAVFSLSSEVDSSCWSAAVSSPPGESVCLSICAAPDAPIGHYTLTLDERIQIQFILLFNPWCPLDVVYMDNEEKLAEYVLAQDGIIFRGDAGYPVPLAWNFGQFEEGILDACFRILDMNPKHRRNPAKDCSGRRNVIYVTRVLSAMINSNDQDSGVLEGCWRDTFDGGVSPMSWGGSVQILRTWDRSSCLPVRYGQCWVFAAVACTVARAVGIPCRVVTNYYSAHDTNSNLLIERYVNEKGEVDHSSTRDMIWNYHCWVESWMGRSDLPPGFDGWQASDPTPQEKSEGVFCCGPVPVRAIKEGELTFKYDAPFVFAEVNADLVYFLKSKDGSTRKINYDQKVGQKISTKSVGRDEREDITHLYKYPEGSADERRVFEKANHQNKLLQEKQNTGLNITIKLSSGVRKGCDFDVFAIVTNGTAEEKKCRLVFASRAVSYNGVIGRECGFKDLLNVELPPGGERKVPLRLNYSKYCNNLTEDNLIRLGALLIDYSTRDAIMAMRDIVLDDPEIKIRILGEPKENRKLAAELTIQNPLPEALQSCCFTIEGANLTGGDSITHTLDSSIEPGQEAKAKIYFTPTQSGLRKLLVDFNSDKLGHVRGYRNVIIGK
From the text: ELISA, pentylamine-biotin incorporation into coated N,N-dimethylcasein on zTG2b | incorporate pentylamine-biotin into the substrate N,N-dimethylcasein in solution. All three zebrafish TGs2

zTG2a [4] = target: T2, zTG2a; details: amine co-substrate with N,N-dimethylcasein; 5 mM CaCl2, 10 mM DTT, pH 8.0, 37 °C
From the text: ELISA, pentylamine-biotin incorporation into coated N,N-dimethylcasein on zTG2a | incorporate pentylamine-biotin into the substrate N,N-dimethylcasein in solution. All three zebrafish TGs2

zTG2like [5] = target: T4, zTG2like (Danio rerio, UniProt A3KQ87); details: amine co-substrate with N,N-dimethylcasein; 5 mM CaCl2, 10 mM DTT, pH 8.0, 37 °C
T4 construct: gene tgm2l; full-length CDS in pET30a(+), His6-tagged (text: C-terminal His-tag; reverse primer keeps stop codon), E. coli BL21(DE3), Ni-NTA; primer-encoded N-terminus MASYNA, C-terminus AVPEI
T4 sequence (A3KQ87 1-692): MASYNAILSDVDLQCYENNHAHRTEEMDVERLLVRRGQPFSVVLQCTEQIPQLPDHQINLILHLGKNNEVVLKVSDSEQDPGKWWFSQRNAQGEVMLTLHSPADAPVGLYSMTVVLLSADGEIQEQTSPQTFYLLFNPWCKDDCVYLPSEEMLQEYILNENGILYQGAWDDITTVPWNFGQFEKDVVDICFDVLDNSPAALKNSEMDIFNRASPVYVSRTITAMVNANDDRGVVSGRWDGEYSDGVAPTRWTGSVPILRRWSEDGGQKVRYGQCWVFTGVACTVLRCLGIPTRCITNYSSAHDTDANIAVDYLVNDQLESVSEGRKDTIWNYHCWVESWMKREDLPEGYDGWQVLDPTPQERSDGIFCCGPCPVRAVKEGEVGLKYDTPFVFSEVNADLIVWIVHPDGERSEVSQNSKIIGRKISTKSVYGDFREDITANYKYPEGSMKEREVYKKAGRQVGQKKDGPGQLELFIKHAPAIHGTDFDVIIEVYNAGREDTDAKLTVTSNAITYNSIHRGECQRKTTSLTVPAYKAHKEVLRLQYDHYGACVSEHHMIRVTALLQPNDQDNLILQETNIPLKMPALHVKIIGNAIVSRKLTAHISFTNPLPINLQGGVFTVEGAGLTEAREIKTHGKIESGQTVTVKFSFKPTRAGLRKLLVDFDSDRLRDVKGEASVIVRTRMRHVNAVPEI
From the text: ELISA, pentylamine-biotin incorporation into coated N,N-dimethylcasein on zTG2like | incorporate pentylamine-biotin into the substrate N,N-dimethylcasein in solution. All three zebrafish TGs2

hTG2 [6] = target: T1, hTG2; details: amine co-substrate with N,N-dimethylcasein; 5 mM CaCl2, 10 mM DTT, pH 8.0, 37 °C
zTG2like [7] = target: T4, zTG2like
zTG2a [8] = target: T2, zTG2a
zTG2b [9] = target: T3, zTG2b; details: 50 ng enzyme, 0.2 mM pentylamine-biotin, 5 mM CaCl2, 10 mM DTT, pH 8.0, 37 °C, 1 h; methods print inhibitor doses as mM

Nc1nc2c(ncn2[C@@H]2O[C@H](COP(=O)(O)OP(=O)(O)OP(=O)(O)O)[C@@H](O)[C@H]2O)c(=O)[nH]1 [GTP]
% inhibition (hTG2 [1]): the inhibitory effect of GTP was only one third of that observed for the human enzyme | % inhibition (zTG2a [2]): zTG2a is the only zebrafish TG2 whose activity is affected by the presence of GTP

NCCCCCNC(=O)CCCC[C@@H]1SC[C@@H]2NC(=O)N[C@@H]21 [pentylamine-biotin]
ELISA, pentylamine-biotin incorporation into coated N,N-dimethylcasein (zTG2b [3]): incorporate pentylamine-biotin into the substrate N,N-dimethylcasein in solution. All three zebrafish TGs2 | ELISA, pentylamine-biotin incorporation into coated N,N-dimethylcasein (zTG2a [4]): incorporate pentylamine-biotin into the substrate N,N-dimethylcasein in solution. All three zebrafish TGs2 | ELISA, pentylamine-biotin incorporation into coated N,N-dimethylcasein (zTG2like [5]): incorporate pentylamine-biotin into the substrate N,N-dimethylcasein in solution. All three zebrafish TGs2 | ELISA, pentylamine-biotin incorporation into coated N,N-dimethylcasein (hTG2 [6]): as well as the human enzyme were able to mediate the transamidation reaction

COC(=O)[C@H](CC(C)C)NC(=O)[C@@H]1CCCN1C(=O)[C@@H](NC(=O)[C@H](CCC(=O)C=[N+]=[N-])NC(=O)OCc1ccccc1)C(C)C [ZDON] (Cbz-[DON]VPL-OMe)
inhibition at 25 µM (zTG2like [7]): ~50% | inhibition at 25 µM (zTG2a [8]): ~50% | % inhibition at 25 μM (zTG2b [9]): ~ 50%
